Assay: gradient 5% acetonitrile 3 min, to 50% in 2 min, to 85% in 15 min, held 3 min, 100 µL/min
Conditions: column: Zorbax Extend-C18 2.1 x 50 mm; eluents: water / acetonitrile, 0.1% formic acid
Summary of the method: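 Using water and acetonitrile that each contained 0.1% formic acid, mixtures of ~100 pure standards were separated at 100 μL/min on a Zorbax Extend-C18 column (2.1 × 50 mm, 1.8 μm). The HPLC fed a quadrupole time-of-flight mass spectrometer working in positive and negative ionization mode, with dead and dwell volumes of 40 μL and 900 μL. Data were acquired over 3 months. Retention time was read from computationally picked adduct peaks after manual inspection of each.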

Row | SMILES | RP-LC retention time [s]
1 | CC(C)(C)OC(=O)Cn1nc2ccc(S(=O)(=O)N3CCSCC3)cn2c1=O | 888
2 | CC(NC(=O)c1ccccn1)C(=O)Nc1nc2ccccc2[nH]1 (configuration not stated) | 608
3 | COC[C@@H]1CN(Cc2ccccn2)C[C@H]1c1nc(C2CC2)no1 | 602
4 | CC(C)NC(=O)c1cc(N(C)C)nc2ccccc12 | 587
5 | O=C(CCCc1ccccc1)N1CC(n2ccnc2)C1 | 606
6 | COc1ccc2[nH]c(=O)c(CCC(=O)NCCN3CCc4ccccc4C3)cc2c1 | 623
7 | COc1ccc(CCNC(=O)c2cc(C3CC3)[nH]n2)cc1OC | 690
8 | O=C(NC1CCCCCC1)C1CCN(c2nccnc2Oc2ccccc2)CC1 | 1020
9 | Cc1nc2ccn(Cc3ccco3)c(=O)c2cc1C(=O)NC1CCCC1 | 723
10 | CCn1c(C(=O)NCc2ccc(Cl)cc2)cc2sccc21 | 1210
11 | CS(=O)(=O)N1CC(F)(F)C[C@H]1c1nc(-c2ccccc2)no1 | 858
12 | COc1ccc(N2C(=O)N[C@@H]3C[C@]2(C)Oc2ccc(C)cc23)cc1OC | 735
13 | Cc1ccc(-c2cc(C(=O)NCCN3CCCC3)n(C)c2)cc1 | 670
14 | CCC(=O)N1C[C@@H]2C(=O)N(CCc3ccccc3)C(=O)[C@@H]2C1 | 702
15 | CSc1cccc(NC(=O)C2CCCN(c3cnc4nc(C)c(C)nc4c3)C2)c1 (configuration not stated) | 807
16 | CCCCOc1ccc(S(=O)(=O)N2CCN(c3nc(C)cc(N4CCOCC4)n3)CC2)cc1 | 818
17 | NC(=O)[C@@H]1C[C@H](Oc2ccccc2)CN1C1CCC1 | 571
18 | CSc1ncccc1C(=O)NCc1cc(-c2ccc3c(c2)OCCO3)on1 | 748
19 | O=C(c1cc(C2CC2)[nH]n1)N1CCC(Cc2ccccc2)CC1 | 902

Row | SMILES | RP-LC retention time [s]
20 | O=C(Cc1ccc(Br)cc1)N1CCCN(c2cc(-c3ccc(F)cc3)[nH]n2)CC1 | 773
21 | CCCN1CCN(c2cc(C(=O)O)c3cc(NC(=O)c4cccc(Cl)c4)ccc3n2)CC1 | 654
22 | O=C(c1cc(-c2ccncc2)n[nH]1)N1CCCC(C(=O)N2CCN(c3ccc(Cl)cc3)CC2)C1 (configuration not stated) | 661
23 | CCc1ccc(Oc2cc(N3CCC(C(=O)NCc4ccc(C)cc4)CC3)ncn2)cc1 | 1050
24 | CCc1nc(-c2ccc(S(=O)(=O)N3CCC(C(=O)N4CCc5ccccc54)CC3)cc2)no1 | 802
25 | CCn1nc(CNC(=O)C(C)Oc2ccccc2OC)c2ccccc21 (configuration not stated) | 810
26 | Cc1ccc(N2CC(c3nc(-c4cccc(-c5ccnn5C)c4)no3)CC2=O)cc1 (configuration not stated) | 605
27 | Cc1ccc(N2CC(C(=O)NCC(C)(O)C3CC3)CC2=O)cc1C (configuration not stated) | 673
28 | COc1ccc(OC)c(CNC(=O)C2CCCN(c3ncnc4c3nc3n4CCCCC3)C2)c1 (configuration not stated) | 746
29 | Cc1cc(C)cc(NS(=O)(=O)c2cc(-c3cc(C(F)(F)F)on3)sc2C)c1 | 1230
30 | Cc1nnc(-c2ccc3ccn(CC(=O)Nc4cccc(F)c4)c3c2)o1 | 808
31 | Cc1ccc(-c2nc(-c3ccnc(N4CCOCC4)c3)no2)cc1 | 1050
32 | CCOc1ccc(-c2noc(Cn3nc(-c4ccc(C)cc4)ccc3=O)n2)cc1 | 1160
33 | Cc1nc2nc3c(cn2n1)C(=O)CCC3 | 593
34 | O=C(c1cn(-c2ccc(-c3nc(C4CC4)no3)cn2)cn1)N1CCc2ccccc2C1 | 968
35 | CCOc1ccc(N2C(=O)C3N=NN(Cc4nc(-c5ccccc5C)no4)C3C2=O)cc1 (configuration not stated) | 1040
36 | CCOC(=O)c1ccc2nc(C(F)(F)F)nc(NCCc3ccc(OC)cc3)c2c1 | 1240
37 | COc1ccc2c(c1)C1(CCN(S(=O)(=O)c3ccccc3)C1)C(=O)N2C (configuration not stated) | 882

Source: the METLIN SMRT retention time set (Domingo-Almenara et al. 2019)
